Results taken from patent publication US20250011326A1, “FUSED HETEROCYCLIC DERIVATIVES AND THEIR USE IN THE TREATMENT OF HBV INFECTION” (Janssen Sciences Ireland Unlimited Company, priority 2021, published 2025).

Key:
HBV = assay: Anti-HBV activity: intracellular HBV DNA by real-time PCR in HepG2.117 cell line; format: cell-based, Hepatitis B virus; conditions: HepG2.117 cells, HBV replication induced (absence of doxycycline), 3 days of treatment, mean value
Description: The anti HBV activity was measured using the HepG2.117 cell line, a stable, inducibly HBV producing cell line, which replicates HBV in the absence of doxycycline (Tet-off system). The HepG2 cell line is available from ATCCR under number HB-8065 Transfection of the HepG2 cell line can be as described in Sun and Nassal 2006 Journal of Hepatology 45 (2006) 636-645 “Stable HepG2- and Huh7-based human hepatoma cell lines for efficient regulated expression of infectious hepatitis B virus”.
For the antiviral assay, HBV replication was induced, followed by a treatment with serially diluted compound in 96-well plates. After 3 days of treatment, the antiviral activity was determined by quantification of intracellular HBV DINA using real-time PCR and an HBV specific primer set and probe.

[1] = Cytotoxicity, cell viability by ATPlite Luminescence Assay; format: cell-based, human; conditions: human, HepG2 or HepG2 117 cells, 3-days incubation (unless marked *), mean value
Description: (§1) Cytotoxicity of the compounds was tested using HepG2 or HepG2 117 cells, incubated for 3 or 4 days in the presence of compounds. The viability of the cells was assessed using the PERKIN ELMER ATPlite Luminescence Assay System.”

HepG2 or HepG2 117 cells = assay: as above; format: cell-based, human; conditions: 3-days incubation (unless marked *), mean value
Description: as §1

[2] = Hepatitis B virus, HepG2.117, 72 h

## CC(=O)NC[C@@H]1Cn2nc3c(c2C(=O)N1[C@@H](C)c1ccc(OC(F)F)cc1)CN(C(=O)c1ccc(Cl)c(C#N)c1)[C@H](C)C3 (single isomer, unassigned) [Compound 1B, N-(((3R,8R*)-2-(4-chloro-3-cyanobenzoyl)-9-((S*)-1-(4-(difluoromethoxy)phenyl)ethyl)-3-methyl-10-oxo-1,2,3,4,7,8,9,10-octahydropyrido[4′,3′:3,4]pyrazolo[1,5-a]pyrazin-8-yl)methyl)acetamide]
HBV
  EC50: 1.48 µM
[1]
  CC50 at 3 days: > 50 µM

## CC(=O)NC[C@@H]1Cn2nc3c(c2C(=O)N1[C@@H](C)c1ccc(OC(F)F)cc1)CN(C(=O)c1ccc(Cl)c(C#N)c1)[C@H](C)C3 (single isomer, unassigned) [Compound 1D, N-(((3R,8S*)-2-(4-chloro-cyanobenzoyl)-9-((S*)-1-(4-(difluoromethoxy)phenyl)ethyl)-3-methyl-10-oxo-1,2,3,4,7,8,9,10-octahydropyrido[4′,3′:3,4]pyrazolo[1,5-a]pyrazin-8-yl)methyl)acetamide]
HBV
  EC50: 0.491 µM
HepG2 or HepG2 117 cells
  CC50: > 50 µM

## CNC(=O)[C@@H]1Cn2nc3c(c2C(=O)N1[C@@H](C)c1ccc(OC(F)F)cc1)CN(C(=O)c1ccc(Cl)c(C#N)c1)[C@H](C)C3 (single isomer, unassigned) [Compound 2B, (3R,8S*)-2-(4-chloro-3-cyanobenzoyl)-9-((S*)-1-(4-(difluoromethoxy)phenyl)ethyl)-N,3-dimethyl-10-oxo-1,2,3,4,7,8,9,10-octahydropyrido[4′,3′:3,1]pyrazolo[1,5-a]pyrazine-8-carboxamide]
HBV; [2]
  EC50: 0.183 µM
[1]
  CC50 at 3 days: > 50 µM

## CC1Cn2nc3c(c2C(=O)N1Cc1ccc(OC(F)F)cc1)CN(C(=O)c1ccc(Cl)c(Cl)c1)[C@H](C)C3 (single isomer, unassigned) [Compound 6A, (3R,8R*)-2-(3,4-dichlorobenzoyl)-9-(4-(difluoromethoxy)benzyl)-3,8-dimethyl-1,2,3,4,8,9-hexahydropyrido[4′,3′:3,4]pyrazolo[1,5-a]pyrazin-10(7H)-one]
HBV; [2]
  EC50: 0.032 µM
[1]
  CC50 at 3 days: 4.5 µM

## CC(c1ccc(OC(F)F)cc1)n1ncn2nc3c(c2c1=O)CN(C(=O)c1ccc(Cl)c(C(F)(F)F)c1)[C@H](C)C3 (single isomer, unassigned) [Compound 7A, (R)-9-(4-Chloro-3-(trifluoromethyl)benzoyl)-2-((R*)-1-(4-(difluoromethoxy)phenyl)ethyl)-8-methyl-7,8,9,10-tetrahydropyrido[4′,3′:3,4]pyrazolo[1,5-d][1,2,4]triazin-1(2H)-one]
HBV; [2]
  EC50: 0.194 µM
[1]
  CC50 at 3 days: 46.3 µM

## CC(c1ccc(OC(F)F)cc1)n1ncn2nc3c(c2c1=O)CN(C(=O)c1ccc(Cl)c(Cl)c1)[C@H](C)C3 (single isomer, unassigned) [Compound 8A, (R)-9-(3,4-Dichlorobenzoyl)-2-((R*)-1-(4-(difluoromethoxy)phenyl)ethyl)-8-methyl-7,8,9,10-tetrahydropyrido[4′,3′:3,4]pyrazolo[1,5-d][1,2,4]triazin-1(2H)-one]
HBV; [2]
  EC50: 0.067 µM
[1]
  CC50 at 3 days: > 50 µM

## CC(c1ccc(OC(F)F)cc1)n1ncn2nc3c(c2c1=O)CN(C(=O)c1ccc(Cl)c(C#N)c1)[C@H](C)C3 (single isomer, unassigned) [Compound 9B, 2-chloro-5-((R)-2-((S*)-1-(4-(difluoromethoxy)phenyl)ethyl)-8-methyl-1-oxo-1,2,7,8,9,10-hexahydropyrido[4′,3′:3,4]pyrazolo[1,5-d][1,2,4]triazine-9-carbonyl)benzonitrile]
HBV; [2]
  EC50: 0.13 µM
[1]
  CC50 at 3 days: > 50 µM

## CC(c1ccc(OC(F)F)cc1)n1ccn2nc3c(c2c1=O)CN(C(=O)c1ccc(Cl)c(Cl)c1)[C@H](C)C3 (single isomer, unassigned) [Compound 10A, (R)-2-(3,4-dichlorobenzoyl)-9-((R*)-1-(4-(difluoromethoxy)phenyl)ethyl)-3-methyl-1,2,3,4-tetrahydropyrido[4′,3′:3,4]pyrazolo[1,5-a]pyrazin-10(9H)-one]
HBV
  EC50: 0.072 µM
[1]
  CC50 at 3 days: 32.8 µM

## CC(c1ccc(OC(F)F)cc1)n1ccn2nc3c(c2c1=O)CN(C(=O)c1ccc(Cl)c(Cl)c1)[C@H](C)C3 (single isomer, unassigned) [Compound 10B, (R)-2-(3,4-dichlorobenzoyl)-9-((S*)-1-(4-(difluoromethoxy)phenyl)ethyl)-3-methyl-1,2,3,4-tetrahydropyrido[4′,3′:3,4]pyrazolo[1,5-a]pyrazin-10(9H)-one]
HBV
  EC50: 0.294 µM
HepG2 or HepG2 117 cells
  CC50: > 50 µM

## CNC(=O)[C@H]1CN([C@@H](C)c2ccc(OC(F)F)cc2)C(=O)c2c3c(nn21)C[C@@H](C)N(C(=O)c1ccc(Cl)c(C#N)c1)C3 (single isomer, unassigned) [Compound 11B, (3R,7R*)-2-(4-chloro-3-cyanobenzoyl-9-((S*)-1-(4-(difluoromethoxy)phenyl)ethyl)-N,3-dimethyl-10-oxo-1,2,3,4,7,8,9,10-octahydropyrido[4′,3′:3,4]pyrazolo[1,5-a]pyrazine-7-carboxamide]
HBV; [2]
  EC50: 0.058 µM
[1]
  CC50 at 3 days: > 50 µM

## CC(=O)NC[C@@H]1CN([C@@H](C)c2ccc(OC(F)F)cc2)C(=O)c2c3c(nn21)C[C@@H](C)N(C(=O)c1ccc(Cl)c(C#N)c1)C3 (single isomer, unassigned) [Compound 13B, N-(((3R,7R*)-2-(4-chloro-3-cyanobenzoyl)-9(S*)-1-(4-(difluoromethoxy)phenyl)ethyl)-3-methyl-10-oxo-1,2,3,4,7,8,9,10-octahydropyrido[4′,3′:3,4]pyrazolo[1,5-a]pyrazin-7-yl)methyl)acetamide]
HBV; [2]
  EC50: 0.167 µM
[1]
  CC50 at 3 days: > 50 µM

## CC(=O)NC[C@H]1CN([C@@H](C)c2ccc(OC(F)F)cc2)C(=O)c2c3c(nn21)C[C@@H](C)N(C(=O)c1ccc(Cl)c(C#N)c1)C3 (single isomer, unassigned) [Compound 13D, N-(((3R,7S*)-2-(4-chloro-3-cyanobenzoyl)-9-((S*)-1-(4-(difluoromethoxy)phenyl)ethyl)-3-methyl-10-oxo-1,2,3,4,7,8,9,10-octahydropyrido[4′,3′:3,4]pyrazolo[1,5-a]pyrazin-7-yl)methyl)acetamide]
HBV; [2]
  EC50: 0.344 µM
[1]
  CC50 at 3 days: > 50 µM

## CC(c1ccc(OC(F)F)cc1)n1ncn2nc3c(c2c1=O)CN(C(=O)c1ccc(Cl)c(C(F)(F)F)c1)[C@H](C)C3 (stereo in doubt) [Compound 7B, (R)-9-(4-chloro-3-(trifluoromethyl)benzoyl)-2-((S*)-1-(4-(difluoromethoxy)phenyl)ethyl)methyl-7,8,9,10-tetrahydropyrido[4′,3′:3,4]pyrazolo[1,5-d][1,2,4]triazin-1(2H)-one]
HBV
  EC50: 0.262 µM
HepG2 or HepG2 117 cells
  CC50: > 50 µM

## CC(c1ccc(OC(F)F)cc1)n1ncn2nc3c(c2c1=O)CN(C(=O)c1ccc(Cl)c(C#N)c1)[C@H](C)C3 (stereo in doubt) [Compound 9A, 2-Chloro-S—((R)-2-((R*)-1-(4-(difluoromethoxy)phenyl)ethyl)-8-methyl-1-oxo-1,2,7,8,9,10-hexahydropyrido[4′,3′:3,4]pyrazolo[1,5-d][1,2,4]triazine-9-carbonyl)benzonitrile]
HBV
  EC50: 0.553 µM
HepG2 or HepG2 117 cells
  CC50: > 50 µM

## CNC(=O)[C@H]1Cn2nc3c(c2C(=O)N1Cc1ccc(OC(F)F)cc1)CN(C(=O)c1ccc(Cl)c(C#N)c1)[C@H](C)C3 [Compound 3A]
HBV; [2]
  EC50: 0.427 µM
[1]
  CC50 at 3 days: > 50 µM

## CC(c1ccc(OC(F)F)cc1)N1C(=O)c2c3c(nn2CC1CO)C[C@@H](C)N(C(=O)c1ccc(Cl)c(C#N)c1)C3 (stereo partly drawn) [Compound 4, 2-Chloro-5-((3R)-9-(1-(4-(difluoromethoxy)phenyl)ethyl)-8-(hydroxymethyl)-3-methyl-10-oxo-1,2,3,4,7,8,9,10-octahydropyrido[4′,3′:3,4]pyrazolo[1,5-a]pyrazine-2-carboaryl)benzonitrile]
HBV; [2]
  EC50: 0.227 µM
[1]
  CC50 at 3 days: 25 µM

## CNC(=O)CC[C@H]1Cn2nc3c(c2C(=O)N1Cc1ccc(OC(F)F)cc1)CN(C(=O)c1ccc(Cl)c(C#N)c1)[C@H](C)C3 [Compound 5, 3-((3R,8S)-2-(4-chloro-3-cyanobenzoyl)-9-(4-(difluoromethoxy)benzyl)-3-methyl-10-oxo-1,2,3,4,7,8,9,10-octahydropyrido[4′3′:3,4]pyrazolo[1,5-a]pyrazin-8-yl)-N-methylpropanamide]
HBV; [2]
  EC50: 0.414 µM
[1]
  CC50 at 3 days: > 50 µM

## CC(c1ccc(OC(F)F)cc1)N1CC(CO)n2nc3c(c2C1=O)CN(C(=O)c1ccc(Cl)c(C#N)c1)[C@H](C)C3 (stereo partly drawn) [Compound 12, 2-Chloro-5-((3R)-9-(1-(4-(difluoromethoxy)phenyl)ethyl)-7-(hydroxymethyl)-3-methyl-10-oxo-1,2,3,4,7,8,9,10-octahydropyrido[4′,3′:3,4]pyrazolo[1,5-a]pyrazine-2-carbonyl)benzonitrile]
HBV; [2]
  EC50: 0.068 µM
[1]
  CC50 at 3 days: 24.9 µM
